Measurements published in patent US20250223270A1, “Sulfonamide Compounds and Use Thereof” (Taiho Pharmaceutical Co., Ltd., priority 2017, published 2025).
Values after ≈ are worked out from the molar mass of the structure shown. “Also recorded” adds a separate entry of the source.

Experiments:
Assay type in all cases: physicochemical
[1] = Hygroscopicity, moisture adsorption/desorption test; conditions: for hygroscopicity: moisture adsorption/desorption test, FIG. 8; for mass change in moisture adsorption/desorption test: relative humidity of 95%, 25° C.
Procedure: The moisture adsorption/desorption test was carried out according to the following conditions.
Approximately 10 to 15 mg of the sample was filled in a dedicated quartz holder, and the weight of each sample at each humidity was continuously measured and recorded under the following conditions.

[2] = Charging property (adhesion to spatula or glass bottle); conditions: adhesion to a spatula or a glass bottle
[3] = Stability test, 40° C./75% RH, analogous substances by HPLC
Procedure: (§1) The amount of analogous substances in the sample solution was measured by HPLC analysis. The handling of the device including data processing was in accordance with the manual provided with the device. (i.e., Prominence-i). About 2 mg of the exemplary sample of the present invention was dissolve in 4 mL of mobile phase A/mobile phase B mixture (17:3), and the resulting mixture was used as sample solution. • Column: CAPCELL PAK ADME manufactured by Shiseido (4.6×150 mm, 3 μm) • UV detection: 220 nm • Column temperature: 40° C. • Column flow rate: 1.0 mL/min • Mobile phase: A; 5 mM phosphate buffer, pH 6.2/Acetonitrile (4:1) • B: acetonitrile • Injection volume: 5 μL • Sample cooler temperature: 5° C. • Collection time: 40 minutes
The solid stability of the exemplary sample of the present invention and the free form obtained above was tested after the sample was stored at 40° C./75% RH (closed and open condition) for 2 weeks or 4 weeks. Open condition means that the lid of the glass bottle was removed and covered with Kimwipe. • Measurement points: 2 weeks and 4 weeks • Storage amount: about 50 to 60 mg • Storage container: brown glass bottle

[4] = Optical purity stability by chiral HPLC; conditions: 40° C./75% RH (closed and open condition), 24 hours
Procedure: The optical purity was also measured by the following HPLC condition • Detector: UV at 240 nm • Column: […] IE (4.6×250 mm, 5 μm)/Daicel corp. • Column temperature: 40° C. • Mobile phase: n-hexane/ethanol/ethanolamine/acetic acid (65:35:0.5:0.2) • Flow rate: 1.0 mL/min • Injection: 5 μL • Sample temperature: 5° C. • Time span of measurement: 40 min
Compound—RR, RS,SS: 0.05%
The optical purity was measured also with added 0.2% optical isomer.
The solid stability of the exemplary sample of the present invention and the free form obtained
above was tested before and after the sample was stored at 40° C./75% RH (closed and open condition) for 24 hours.

[5] = Solubility test, 37° C., 2 hours; conditions: for Solubility: 2 hours
Procedure: About 15 mg of the exemplary sample of the present invention was added to 1 mL of each solvent and was swelled at 37° C. for 2 hours under light resistant condition. After centrifugation, each supernatant was filtered, and 0.7 mL of a mixture of water and acetonitrile (1:1) was added to 0.1 ml of the filtrate.
Following of mobile phase: Control the gradient by mixing the mobile phase A and B as directed in the following table below • Flow rate: 1.0 mL per minutes • Time span of measurement: For 12 minutes after injection

[6] = Solid stability test, 40° C./75% RH, 70° C., 80° C., by HPLC
Procedure: The solid stability of the exemplary sample of the present invention and the free form obtained above was tested after the sample was stored at 40° C./75% RH (open condition), 70° C. (closed) and 80° C. (closed) after 2 weeks or 4 weeks. Open condition means that the lid of the glass bottle was removed and covered with Kimwipe, 70° C. and 80° C. (closed). • Measurement points: 2 weeks and 4 weeks • Storage amount: about 30 mg • Storage container: brown glass bottle
as §1, with “6.5/Acetonitrile” for “6.2/Acetonitrile”

| SMILES | mass change in moisture adsorption/desorption test [1] | charging property [2] | Chemical Purity (%) ([3]; 40° C./75% RH (Closed), 2 wks) | Total amount of analogous substances (%) ([3]; 40° C./75% RH (Closed), 2 wks) | Chemical Purity (%) ([3]; 40° C./75% RH (Closed), 4 wks) | Total amount of analogous substances (%) ([3]; 40° C./75% RH (Closed), 4 wks) | Chemical Purity (%) ([3]; 40° C./75% RH (Open), 2 wks) | Total amount of analogous substances (%) ([3]; 40° C./75% RH (Open), 2 wks) | Chemical Purity (%) ([3]; 40° C./75% RH (Open), 4 wks) | Total amount of analogous substances (%) ([3]; 40° C./75% RH (Open), 4 wks) | Chemical Purity (%) ([3]; Initial) | Total amount of analogous substances (%) ([3]; Initial) | change in the optical purity [4] | Chemical Purity (%) ([6]; 40° C. 75% RH (Open), 4wks) | Total amount of analogous substances (%) ([6]; 40° C. 75% RH (Open), 4wks) | Chemical Purity (%) ([6]; 70° C. (Closed), 2 wks) | Total amount of analogous substances (%) ([6]; 70° C. (Closed), 2 wks) | Chemical Purity (%) ([6]; 70° C. (Closed), 4 wks) | Total amount of analogous substances (%) ([6]; 70° C. (Closed), 4 wks) | Chemical Purity (%) ([6]; 80° C. (Closed), 2 wks) | other results |
| --- | --- | --- | --- | --- | --- | --- | --- | --- | --- | --- | --- | --- | --- | --- | --- | --- | --- | --- | --- | --- | --- |
| Cc1ccc(F)c([C@@H](C)[C@H](NS(=O)(=O)c2ccc(Cl)cc2C(N)=O)c2n[nH]c(=O)o2)c1C [Exemplary Sample, 5-chloro-2-(N-((1S,2R)-2-(6-fluoro-2,3-dimethylphenyl)-1-(5-oxo-4,5-dihydro-1,3,4-oxadiazol-2-yl)propyl)sulfamoyl)benzamide] | about 0.1% | weak charging property; also recorded: low charging property | 98.67 | 1.33 | 98.62 | 1.38 | 98.67 | 1.33 | 98.60 | 1.40 | 98.67 | 1.33 | No significant change | 99.69 | 0.31 | 99.67 | 0.33 | 99.68 | 0.32 | 99.66 | hygroscopicity [1]: almost no hygroscopicity; Solubility ([5]; 0.5% HPMC, 37° C.): 130 µg/mL (≈ 269 µM); Solubility ([5]; Acetate buffer (50 mM, pH 4.0), 37° C.): 260 µg/mL (≈ 538 µM); Solubility ([5]; Second fluid for dissolution test, pH 6.8, 37° C.): 610 µg/mL (≈ 1260 µM); change on XRD pattern ([5]; after 2 hr solubility study): No significant change; Total amount of analogous substances (%) ([6]; 80° C. (Closed), 2 wks): 0.34%; Chemical Purity (%) ([6]; 80° C. (Closed), 4 wks): 99.66%; Total amount of analogous substances (%) ([6]; 80° C. (Closed), 4 wks): 0.34%; Chemical Purity (%) ([6]; Initial): 99.69%; Total amount of analogous substances (%) ([6]; Initial): 0.31% |
| Cc1ccc(F)c([C@@H](C)[C@H](NS(=O)(=O)c2ccc(Cl)cc2C(N)=O)c2n[nH]c(=O)o2)c1C [Comparative Example, 5-chloro-2-(N-((1S,2R)-2-(6-fluoro-2,3-dimethylphenyl)-1-(5-oxo-4,5-dihydro-1,3,4-oxadiazol-2-yl)propyl)sulfamoyl)benzamide] | about 3.8% | high charging property | 98.42 | 1.58 | 98.16 | 1.84 | 98.35 | 1.65 | 98.14 | 1.86 | 98.49 | 1.51 | No significant change | 97.97 | 2.03 | 97.31 | 2.69 | 96.39 | 3.61 | 95.90 | hygroscopicity ([1]; listed as free form): had hygroscopicity; charging property ([2]; listed as free form): high charging property; Total amount of analogous substances (%) ([6]; 80° C. (Closed), 2 wks): 4.10%; Chemical Purity (%) ([6]; 80° C. (Closed), 4 wks): 92.92%; Total amount of analogous substances (%) ([6]; 80° C. (Closed), 4 wks): 7.08%; Chemical Purity (%) ([6]; Initial): 98.33%; Total amount of analogous substances (%) ([6]; Initial): 1.67% |
